Values of other authors as cited in patent publication US20250332126A1, “TOPICAL COMPOSITION FOR PAIN RELIEF” (JOHNSON & JOHNSON CONSUMER INC., priority 2022, published 2025).

Settings: at 20° C.

Q: With `CO` [methanol] as the molecule, how does the vapor pressure read?
A: 11.9 kPa

Q: Which vapor pressure does the source give for `CC(C)O` [isopropanol] here?
A: 4.40 kPa

Q: Which vapor pressure does the source give for `CCO` [ethanol] here?
A: 5.95 kPa
